What was measured:
Type in all cases: in vivo, rat
[1] = tested on: aortic smooth muscle strips; assay: Dose-response relationship to 8-Br-cGMP, relaxation of aortic smooth muscle strips from treated rats; conditions: post-infarct animals treated with captopril, at both 2 and 4 weeks; P>0.05
From the text: After intubation, rats were ventilated continuously (room air) using a small animal ventilator (Model 683, Harvard Apparatus, Holliston, Mass.). A left lateral thoracotomy incision was made along the 5th intercostal space and after the pericardium was opened, the heart was exteriorized using a retention suture placed at the apex. The left anterior descending coronary artery (LAD) was ligated twice using 6-0 prolene suture (Ethicon, Cornelia, Ga.). After chest closure with running 3-0 vicryl suture (Ethicon), rats were put in a recovery chamber with a heating pad and warming light. The post-operative survival rate reached 80%. […] Rats were fed a standard diet of Teklad rodent feed (Harlan) ad libitum and kept on a 12:12 h light-dark cycle. Rats were sacrificed at designated time intervals of 2 weeks and 4 weeks after surgery. […] Determination of the dose-response relationship to cGMP: Aortic smooth muscle strips were isolated from rats in the uninfarcted control group without treatment and from both placebo as well as captopril treated group at 2 weeks and 4 weeks post-LAD ligation to determine the dose-response relationship to cGMP. […] After the force reached a steady state, the dose-response relationship to 8-Br-cGMP (Calbiochem, San Diego, Calif.) was determined.

TAO kinase 1 (Taok1) = assay: Affymetrix microarray gene expression in aorta post-infarction; conditions: 2 weeks, infarcted rats with or without captopril
From the text: (§1) After intubation, rats were ventilated continuously (room air) using a small animal ventilator (Model 683, Harvard Apparatus, Holliston, Mass.). A left lateral thoracotomy incision was made along the 5th intercostal space and after the pericardium was opened, the heart was exteriorized using a retention suture placed at the apex. The left anterior descending coronary artery (LAD) was ligated twice using 6-0 prolene suture (Ethicon, Cornelia, Ga.). After chest closure with running 3-0 vicryl suture (Ethicon), rats were put in a recovery chamber with a heating pad and warming light. The post-operative survival rate reached 80%. […] Rats were fed a standard diet of Teklad rodent feed (Harlan) ad libitum and kept on a 12:12 h light-dark cycle. Rats were sacrificed at designated time intervals of 2 weeks and 4 weeks after surgery. […] Isolation of total RNA: […] Surrounding peri-adventitial tissues, fat, and endothelium were then carefully cleaned away and removed. The remaining vascular smooth muscle was then frozen with liquid nitrogen, pulverized into fine powder, and resuspended in 600 μl of Buffer RLT with β-ME (10 μl β-ME: 1 ml Buffer RLT, Qiagen, Valencia, Calif.). The lysate was pipetted directly onto a QIAshredder spin column (Qiagen) placed in a 2 ml collection tube and centrifuged for 5 minutes at 14000 rpm, 4° C. The supernatant was transferred to a new microcentrifuge tube and 1 volume of 70% ethanol was added and mixed. The cleared lysate was then transferred to an RNeasy mini-column (Qiagen) placed in a 2 ml collection tube and spun for 15 seconds at ≧10,000 rpm, 4° C. The flow-through was discarded and 700 μl of Buffer RW1 (Qiagen) was added to the RNeasy column. After the column was spun for 15 seconds at ≧10,000 rpm (4° C.), it was transferred into a new 2 ml collection tube, washed, spun twice with 500 μl Buffer RPE (Qiagen), and eluted with 40 μl of RNase-free water using a microcentrifuge (≧10,000 rpm, 4° C.) for 1 minute. Final RNA samples were stored at −20° C. to prevent degradation. Determination of gene expression using Affymetrix microarrays: Gene expression analysis was conducted using a GeneChip Rat Genome 230 2.0 Array (Affymetrix, West Sacramento, Calif.), with sequences selected from the GENBANK® (World Wide Web at ncbi.nlm.nih.gov) database for expressed sequence tags (dbEST), and Reference Sequence (RefSeq) (Benson et al. (2007) Nucleic Acids Res. 35:D21-25; and Boguski et al. (1993) Nat. Genet. 4:332-333). These sequence clusters were created from the UniGene database (Wheeler et al. (2003) Nucleic Acids Res. 31:28-33; Build 99, June 2002, World Wide Web at ncbi.nlm.nih.gov) and then refined by analysis and comparison with the publicly available draft assembly of the rat genome from the Baylor College of Medicine Human Genome Sequencing Center (Gibbs et al. (2004) Nature 428:493-521). […] GENECHIP® Scanner 3000 and GENECHIP® Operating Software (GCOS) v1.1.1 (Affymetrix, West Sacramento, Calif.), enabled for high-resolution scanning, was used for the final microarray analysis. Differentially expressed genes are listed according to their GeneID number in the National Center for Biotechnology Information (NCBI) database. To ensure accurate analysis, a minimum of 3 ng of good quality total RNA at a concentration of ≧500 pg/μl was required. RNA (1 ng) was tested for its quality using an Agilent 2100 bioanalyzer (Agilent Technologies). A RNA Integrity Number (RIN) was assigned to each sample, and RIN ≧6 was considered satisfactory for proceeding with the microarray analysis. Statistics: The Affymetrix array was used to determine gene expression at 2 weeks and 4 weeks. Uninfarcted control aorta was then compared with both captopril and placebo treated aorta. Similarly, uninfarcted control portal vein was compared with both captopril and placebo treated portal vein. […]

afadin (Af6) = assay: as above; conditions: 2 weeks, infarcted rats with or without captopril
From the text: as §1

[2] = tested on: cytochrome c oxidase subunit Va (Cox5a); assay: as above; conditions: 4 weeks post-infarction, higher with surgery
From the text: as §1

[3] = tested on: Sel (suppressor of lin-12) 1 homolog 1h. (Sel1h); assay: as above; conditions: 2 weeks, infarcted rats with or without captopril
From the text: as §1

[4] = tested on: trafficking protein particle complex 1 (Trappc1); assay: as above; conditions: 4 weeks post-infarction, higher with surgery
From the text: as §1

[5] = tested on: glycerophosphodiester phosphodiesterase (MIR16); assay: as above; conditions: 2 weeks, infarcted rats with or without captopril
From the text: as §1

[6] = tested on: CCAAT/enhancer binding protein (C/EBP) gamma (Cebpg); assay: as above; conditions: 4 weeks post-infarction, higher with surgery
From the text: as §1

Compound: C[C@H](CS)C(=O)N1CCC[C@H]1C(=O)O [Captopril, 1-[(2S)-3-mercapto-2-methylpropionyl]-L-proline]
- sensitivity of cGMP-mediated relaxation versus uninfarcted control aorta [1]: not different
- Taok1 aortic expression level versus control rats without surgery (TAO kinase 1 (Taok1)): higher
- Af6 aortic expression level versus control rats without surgery (afadin (Af6)): higher
- Cox5a expression in the aorta with captopril therapy versus surgery alone [2]: further increase in expression
- Sel1h aortic expression level versus control rats without surgery [3]: higher
- Trappc1 expression in the aorta with captopril therapy versus surgery alone [4]: further increase in expression
- MIR16 aortic expression level versus control rats without surgery [5]: higher
- Cebpg expression in the aorta with captopril therapy versus surgery alone [6]: further increase in expression

From US8293481B2, “Biomarkers for chronic vascular dysfunction” (Mayo Foundation for Medical Education and Research, priority 2006, dated 2012)
